In one series the target is Gamma-secretase. Put plainly: Inhibition of gamma-secretase-mediated notch cleavage in human SNC cells by ELISA. It counts as cell-based. A general note: ELISA stands for enzyme-linked immunosorbent assay.
Series [1] deals with Gamma-secretase (Homo sapiens) (UniProt Q96BI3+Q9NZ42+Q8WW43+P49768+Q92542+P49810). Put plainly: Inhibition of gamma-secretase-mediated APP cleavage in human SNC cells by ELISA. It counts as cell-based.
A short description of series [2]: Inhibition of gamma-secretase-mediated APP cleavage assessed as amyloid beta40 level after 2 hrs by ELISA.
Series [3] is described as follows: Oxidative metabolic stability in human liver microsomes assessed as compound remaining at 2 uM after 30 mins in presence of 1 mM UDPGA. It counts as ADME, Microsome. The settings on record: liver microsomes, read-out: Stability.
A short description of series [4]: Oxidative metabolic stability in human liver microsomes assessed as compound remaining at 1 uM after 30 mins in presence of 1 mM NADPH. It counts as ADME, Microsome. The following applies: liver microsomes, read-out: Stability. (In general: Liver microsomes are vesicles of endoplasmic reticulum, rich in cytochrome P450 enzymes.)
Series [5] can be described thus: Inhibition of gamma-secretase-mediated notch cleavage after 2 hrs by ELISA.

What is called IC50 is the concentration that inhibits the measured activity by half. Regarding `CC1C(=O)c2[nH]ncc2C(C2CC2)N1S(=O)(=O)c1ccc(C(F)(F)F)cc1` (centres undefined), the results for the 50% inhibitory concentration (IC50) (against Gamma-secretase; in series [2]; in series [5]) were above 40000 nM, 0.5 nM and 12 nM, respectively. For the same compound, in series [1], the ED50 amounted to 2340 nM. In addition, in series [3], the remaining at 0.5 h, 2 µM was 67%. Also, the remaining at 0.5 h, 1 µM in series [4] was found to be 62%.
For the compound `O=C1CN(S(=O)(=O)c2ccc(C(F)(F)F)cc2)C(C(F)(F)F)c2cn[nH]c21` (centres undefined), the IC50 at Gamma-secretase is above 40000 nM; in series [2] it was 2.6 nM; in series [5], 51 nM. This compound displayed an ED50 in series [1] above 10000 nM. Moreover, in series [3], the remaining at 0.5 h, 2 µM was found to be 6%. The remaining at 0.5 h, 1 µM in series [4] came to 1%.
For the compound `CC1C(=O)c2[nH]ncc2C(C)N1S(=O)(=O)c1ccc(C(F)(F)F)cc1` (centres undefined), the results for the IC50 (against Gamma-secretase; in series [2]; in series [5]) were above 40000 nM, 6.8 nM and 89 nM, respectively. The ED50 in series [1] turned out to be 5110 nM. In series [3], the remaining at 0.5 h, 2 µM was 77%. For the same compound, the remaining at 0.5 h, 1 µM in series [4] is 63%.
On to `CCC1c2cn[nH]c2C(=O)CN1S(=O)(=O)c1ccc(C(F)(F)F)cc1` (centres undefined), for which the values for the concentration for half-maximal inhibition (IC50) (against Gamma-secretase; in series [2]) were above 40000 nM and 6.5 nM, respectively. In series [1], this compound had an ED50 above 10000 nM. Moreover, the remaining at 0.5 h, 1 µM in series [4] was found to be 19%.
As for `O=C1CN(S(=O)(=O)c2ccc(C(F)(F)F)cc2)[C@H](C2CC2)c2cn[nH]c21`, the figures for the 50% inhibitory concentration (IC50) (at Gamma-secretase; in series [2]; in series [5]) were above 40000 nM, 9.1 nM and 354 nM, respectively. Also, the ED50 in series [1] was above 10000 nM.
In the case of `O=S(=O)(c1ccc(C(F)(F)F)cc1)N1C(C2CC2)c2cn[nH]c2C(F)(F)C1C1CC1` (centres undefined), the half-inhibitory concentration (IC50) against Gamma-secretase is 771 nM; in series [2], 1.5 nM; in series [5], 42 nM. For the same compound, in series [1], the ED50 worked out at 6 nM. Moreover, the remaining at 0.5 h, 2 µM in series [3] was 64%. For the same compound, in series [4], the remaining at 0.5 h, 1 µM amounted to 76%.
Regarding `CC(C)[C@@H]1c2cn[nH]c2C(=O)CN1S(=O)(=O)c1ccc(Cl)cc1`, the results for the concentration for half-maximal inhibition (IC50) (on Gamma-secretase; in series [2]; in series [5]) were above 40000 nM, 3.7 nM and 91 nM, respectively. The ED50 in series [1] was found to be 4000 nM. In addition, in series [3], the remaining at 0.5 h, 2 µM was 71%. In addition, the remaining at 0.5 h, 1 µM in series [4] came out at 12%.
Consider `O=C1c2[nH]ncc2C(C2CC2)N(S(=O)(=O)c2ccc(C(F)(F)F)cc2)C12CCCC2` (racemic), for which the figures for the IC50 (against Gamma-secretase; in series [2]; in series [5]) were 235 nM, 0.4 nM and 8 nM, respectively. This compound came in with an ED50 in series [1] of 2 nM. The remaining at 0.5 h, 1 µM in series [4] was found to be 3%.
Taken in the same sequence, the figures for `O=C1c2[nH]ncc2C(C2CC2)N(S(=O)(=O)c2ccc(C(F)(F)F)nc2)C1c1cc(F)cc(F)c1` (racemic) were 4000 nM, 0.7 nM, 17 nM, above 1000 nM and 9%.
Taken in the same sequence, the figures for `O=C1c2[nH]ncc2C(C2CC2)N(S(=O)(=O)c2ccc(Cl)s2)C12CC2` (racemic) were 576 nM, 2 nM, 18 nM, 7 nM and 1%.
Consider `O=C1c2[nH]ncc2C(C2CC2)N(S(=O)(=O)c2ccc(C(F)(F)F)cn2)C12CC2` (racemic), for which, in series [1], the ED50 is 87 nM.
In turn, `O=C1c2[nH]ncc2C(C2CC2)N(S(=O)(=O)c2ccc(C(F)(F)F)nc2)C12CC2` (racemic) showed an ED50 in series [1] of 7 nM.
Same read-out and setting: the result for `O=S(=O)(c1ccc(C(F)(F)F)nc1)N1C(C2CC2)c2cn[nH]c2C(F)(F)C12CC2` (racemic) reads 0.5 nM.
As for `O=C1c2[nH]ncc2C(C2CC2)N(S(=O)(=O)c2ccc(C(F)(F)F)nc2)C12CC2` (racemic) [4'-CYCLO PROPYL-5'-(6-(TRIFLUORO METHYL)PYRIDIN-3-YL SULFONYL)-4',5'-DIHYDROSPIRO[CYCLOPROPANE-1,6'-PYRAZOLO[4,3-C]PYRIDIN]-7'(1'H)-ONE (ENANTIOMERIC MIX)], the half-maximal inhibitory concentration (IC50) on Gamma-secretase stood at 688 nM; in series [2] it was 1.8 nM; in series [5], 35 nM. Also, the remaining at 0.5 h, 2 µM in series [3] worked out at 91%. In addition, the remaining at 0.5 h, 1 µM in series [4] amounted to 86%.
Taken in the same sequence, the figures for `O=C1c2[nH]ncc2C(C2CC2)N(S(=O)(=O)c2ccc(C(F)(F)F)cn2)C12CC2` (racemic) [4'-CYCLOPROPYL-5'-(5-(TRIFLUORO METHYL)PYRIDIN-2-YL SULFONYL)-4',5'-DIHYDROSPIRO[CYCLOPROPANE-1,6'-PYRAZOLO[4,3-C]PYRIDIN]-7'(1'H)-ONE (ENANTIOMERIC MIX)] were 6210 nM, 24 nM, 502 nM, 89% and 76%.
Turning to `COC[C@H]1C(=O)c2[nH]ncc2[C@@H](C2CC2)N1S(=O)(=O)c1ccc(C(F)(F)F)cc1` (relative stereo), the half-inhibitory concentration (IC50) at Gamma-secretase was above 40000 nM; in series [2], 3.2 nM; in series [5], 126 nM. Moreover, in series [1], the ED50 is above 10000 nM. The remaining at 0.5 h, 1 µM in series [4] came out at 14%.
Taken in the same sequence, the figures for `C[C@@H]1C(=O)c2[nH]ncc2[C@H](C)N1S(=O)(=O)c1ccc(C(F)(F)F)nc1` (stereo in doubt) were above 40000 nM, 91 nM, 2270 nM, above 10000 nM and 62%.
As to `CC[C@@H]1C(=O)c2[nH]ncc2[C@H](CC)N1S(=O)(=O)c1ccc(Cl)cc1` (stereo in doubt), the figures for the concentration for half-maximal inhibition (IC50) (against Gamma-secretase; in series [2]) were 546 nM and 0.3 nM, respectively. For the same compound, in series [1], the ED50 is 6 nM. Further, the remaining at 0.5 h, 2 µM in series [3] came to 77%. The remaining at 0.5 h, 1 µM in series [4] was found to be 6%.
In turn, `CC(C)(C)C1C(=O)c2[nH]ncc2C(C2CC2)N1S(=O)(=O)c1ccc(C(F)(F)F)nc1` (stereo in doubt; 3t) displayed an ED50 in series [1] of 0.6 nM.
`CC(C)(C)C1C(=O)c2[nH]ncc2C(C2CC2)N1S(=O)(=O)c1ccc(C(F)(F)F)nc1` (stereo in doubt; 3t) [6-TERT-BUTYL-4-CYCLOPROPYL-5-(6-(TRIFLUOROMETHYL)PYRIDIN-3-YLSULFONYL)-5,6-DIHYDRO-1H-PYRAZOLO[4,3-C]PYRIDIN-7(4H)-ONE (STRUCTURAL MIX)]: the results for the IC50 (against Gamma-secretase; in series [2]; in series [5]) were 71 nM, 0.2 nM and 6 nM, respectively. Also, in series [3], the remaining at 0.5 h, 2 µM worked out at 66%. In addition, the remaining at 0.5 h, 1 µM in series [4] came to 8%.
With `CC(C)(C)C1C(=O)c2[nH]ncc2C(C2CC2)N1S(=O)(=O)c1ccc(C(F)(F)F)nc1` (stereo in doubt; 3u), the ED50 in series [1] was found to be 16 nM.
In series [1], `O=C1c2[nH]ncc2C(C2CC2)N(S(=O)(=O)c2ccc(C(F)(F)F)nc2)C12CC2` (stereo in doubt; 16e) registered an ED50 of 2680 nM.
The same measure, in the same setting: the result for `O=C1c2[nH]ncc2C(C2CC2)N(S(=O)(=O)c2ccc(C(F)(F)F)nc2)C12CC2` (stereo in doubt; 16f) reads 4 nM; that for `O=C1c2[nH]ncc2C(C2CC2)N(S(=O)(=O)c2ccc(C(F)(F)F)cn2)C12CC2` (stereo in doubt; 16h), 1850 nM.
In turn, `O=C1c2[nH]ncc2C(C2CC2)N(S(=O)(=O)c2ccc(C(F)(F)F)cn2)C12CC2` (stereo in doubt; 16i) gave an ED50 in series [1] of 26 nM.
The same measure, in the same setting: the result for `O=S(=O)(c1ccc(C(F)(F)F)nc1)N1C(C2CC2)c2cn[nH]c2C(F)(F)C12CC2` (stereo in doubt; 17b) reads 0.3 nM; that for `O=S(=O)(c1ccc(C(F)(F)F)nc1)N1C(C2CC2)c2cn[nH]c2C(F)(F)C12CC2` (stereo in doubt; 17c), 86 nM.

These data come from ChEMBL document CHEMBL1158636, “Discovery of a novel sulfonamide-pyrazolopiperidine series as potent and efficacious gamma-secretase inhibitors (Part II)” (Bioorg Med Chem Lett, 2010).
